Measurements: PubChem BioAssay AID1963440 (Molecular Pharmacology Branch, DTP, NCI, 2024)

Test system: NCI-H1417 complex spheroids, growth % test/control
Experiment: Anticancer human tumor NCI-H1417 cell line growth inhibition [Asc];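 note: spheroids exposed to compounds for 7 days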;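 for viability, T/C: 100% = DMSO vehicle control wells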
Settings: for IC50: curve of first compound; for viability, T/C: stronger effect = lower value
Procedure, shortened: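 Complex solid-tumor spheroids incorporating human endothelial and mesenchymal stem cells received single agents or combinations over half-log dilution ranges anchored to clinical Cmax.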

[1] = second compound 0.01 µM, first compound 0.00316 µM
[2] = second compound 0.01 µM, first compound 0.01 µM
[3] = second compound 0.01 µM, first compound 0.0316 µM
[4] = second compound 0.01 µM, first compound 0.1 µM
[5] = second compound 0.01 µM, first compound 0.316 µM
[6] = second compound 0.01 µM, first compound 1 µM
[7] = second compound 0.0316 µM, first compound 0.00316 µM
[8] = second compound 0.0316 µM, first compound 0.01 µM
[9] = second compound 0.0316 µM, first compound 0.0316 µM
[10] = second compound 0.0316 µM, first compound 0.1 µM
[11] = second compound 0.0316 µM, first compound 0.316 µM
[12] = second compound 0.0316 µM, first compound 1 µM
[13] = second compound 0.1 µM, first compound 0.00316 µM
[14] = second compound 0.1 µM, first compound 0.01 µM
[15] = second compound 0.1 µM, first compound 0.0316 µM
[16] = second compound 0.1 µM, first compound 0.1 µM
[17] = second compound 0.1 µM, first compound 0.316 µM
[18] = second compound 0.1 µM, first compound 1 µM
[19] = second compound 0.316 µM, first compound 0.00316 µM
[20] = second compound 0.316 µM, first compound 0.01 µM
[21] = second compound 0.316 µM, first compound 0.0316 µM
[22] = second compound 0.316 µM, first compound 0.1 µM
[23] = second compound 0.316 µM, first compound 0.316 µM
[24] = second compound 0.316 µM, first compound 1 µM
[25] = second compound 1 µM, first compound 0.00316 µM
[26] = second compound 1 µM, first compound 0.01 µM
[27] = second compound 1 µM, first compound 0.0316 µM
[28] = second compound 1 µM, first compound 0.1 µM
[29] = second compound 1 µM, first compound 0.316 µM
[30] = second compound 1 µM, first compound 1 µM

| IC50 (second compound 0.01 µM) [µM] | IC50 (second compound 0.0316 µM) [µM] | IC50 (second compound 0.1 µM) [µM] | IC50 (second compound 0.316 µM) [µM] | IC50 (second compound 1 µM) [µM] | Compound | viability, T/C [1] [%] | viability, T/C [2] [%] | viability, T/C [3] [%] | viability, T/C [4] [%] | viability, T/C [5] [%] | viability, T/C [6] [%] | viability, T/C [7] [%] | viability, T/C [9] [%] | viability, T/C [10] [%] | viability, T/C [15] [%] | viability, T/C [16] [%] | viability, T/C [21] [%] | viability, T/C [22] [%] | viability, T/C [27] [%] | viability, T/C [28] [%] | further results |
| --- | --- | --- | --- | --- | --- | --- | --- | --- | --- | --- | --- | --- | --- | --- | --- | --- | --- | --- | --- | --- | --- |
| > 1 | > 1 | > 1 | > 1 | > 1 | CCN1CCN(Cc2ccc(Nc3ncc(F)c(-c4cc(F)c5nc(C)n(C(C)C)c5c4)n3)nc2)CC1 + CNC(C)C(=O)NC1CN(S(=O)(=O)c2cccc(S(=O)(=O)N3CCC4CCC(C(=O)NC(c5ccccc5)c5ccccc5)N4C(=O)C(NC(=O)C(C)NC)C3)c2)CCC2CCC(C(=O)NC(c3ccccc3)c3ccccc3)N2C1=O | 100 | 108 | 106 | 99.7 | 96.5 | 111 | 102 | 104 | 105 | 99.2 | 97.8 | 90.6 | 99.9 | 101 | 110 | viability, T/C [8]: 103%; viability, T/C [11]: 97.4%; viability, T/C [12]: 103%; viability, T/C [13]: 93.2%; viability, T/C [14]: 101%; viability, T/C [17]: 103%; viability, T/C [18]: 109%; viability, T/C [19]: 99.3%; viability, T/C [20]: 105%; viability, T/C [23]: 95.2%; viability, T/C [24]: 97.7%; viability, T/C [25]: 105%; viability, T/C [26]: 109%; viability, T/C [29]: 90%; viability, T/C [30]: 93.7% |
| > 0.1 | > 0.1 | > 0.1 | > 0.1 | > 0.1 | Cn1ncnc1[C@H]1c2n[nH]c(=O)c3cc(F)cc(c23)N[C@@H]1c1ccc(F)cc1 + CNC(C)C(=O)NC1CN(S(=O)(=O)c2cccc(S(=O)(=O)N3CCC4CCC(C(=O)NC(c5ccccc5)c5ccccc5)N4C(=O)C(NC(=O)C(C)NC)C3)c2)CCC2CCC(C(=O)NC(c3ccccc3)c3ccccc3)N2C1=O | 96.8 | 81.1 | 69.4 | 85.3 |  |  | 94 | 69 | 80.2 | 66.9 | 74 | 64.3 | 70.1 | 80 | 84.4 | viability, T/C (second compound 0.01 µM, first compound 0.000316 µM): 110%; viability, T/C (second compound 0.01 µM, first compound 0.001 µM): 115%; viability, T/C (second compound 0.0316 µM, first compound 0.000316 µM): 104%; viability, T/C (second compound 0.0316 µM, first compound 0.001 µM): 98.8%; viability, T/C [8]: 87.4%; viability, T/C (second compound 0.1 µM, first compound 0.000316 µM): 95.8%; viability, T/C (second compound 0.1 µM, first compound 0.001 µM): 93%; viability, T/C [13]: 90.9%; viability, T/C [14]: 78.3%; viability, T/C (second compound 0.316 µM, first compound 0.000316 µM): 99.6%; viability, T/C (second compound 0.316 µM, first compound 0.001 µM): 110%; viability, T/C [19]: 102%; viability, T/C [20]: 78.5%; viability, T/C (second compound 1 µM, first compound 0.000316 µM): 98%; viability, T/C (second compound 1 µM, first compound 0.001 µM): 112%; viability, T/C [25]: 95.4%; viability, T/C [26]: 81.3% |
| 5.78 | 6.33 | 4.79 | 5.52 | 5.39 | O=C(c1cc(Cc2n[nH]c(=O)c3ccccc23)ccc1F)N1CCN(C(=O)C2CC2)CC1 + CNC(C)C(=O)NC1CN(S(=O)(=O)c2cccc(S(=O)(=O)N3CCC4CCC(C(=O)NC(c5ccccc5)c5ccccc5)N4C(=O)C(NC(=O)C(C)NC)C3)c2)CCC2CCC(C(=O)NC(c3ccccc3)c3ccccc3)N2C1=O |  |  | 101 | 101 | 94.7 | 83.6 |  | 102 | 87.8 | 90.3 | 93.5 | 99.9 | 92.3 | 97.7 | 90 | viability, T/C (second compound 0.01 µM, first compound 3.16 µM): 65.6%; viability, T/C (second compound 0.01 µM, first compound 10 µM): 36.1%; viability, T/C [11]: 88.5%; viability, T/C [12]: 100%; viability, T/C (second compound 0.0316 µM, first compound 3.16 µM): 71.5%; viability, T/C (second compound 0.0316 µM, first compound 10 µM): 35.8%; viability, T/C [17]: 81.8%; viability, T/C [18]: 90%; viability, T/C (second compound 0.1 µM, first compound 3.16 µM): 60.7%; viability, T/C (second compound 0.1 µM, first compound 10 µM): 30.9%; viability, T/C [23]: 96.7%; viability, T/C [24]: 85.6%; viability, T/C (second compound 0.316 µM, first compound 3.16 µM): 68.8%; viability, T/C (second compound 0.316 µM, first compound 10 µM): 30%; viability, T/C [29]: 91.2%; viability, T/C [30]: 95%; viability, T/C (second compound 1 µM, first compound 3.16 µM): 65.5%; viability, T/C (second compound 1 µM, first compound 10 µM): 32% |
| > 1 | > 1 | > 1 | > 1 | > 1 | O=C(c1ccc(F)c(F)c1Nc1ccc(I)cc1F)N1CC(O)([C@@H]2CCCCN2)C1 + CNC(C)C(=O)NC1CN(S(=O)(=O)c2cccc(S(=O)(=O)N3CCC4CCC(C(=O)NC(c5ccccc5)c5ccccc5)N4C(=O)C(NC(=O)C(C)NC)C3)c2)CCC2CCC(C(=O)NC(c3ccccc3)c3ccccc3)N2C1=O | 107 | 102 | 95 | 103 | 99.5 | 85.3 | 107 | 92.7 | 102 | 95.3 | 98.4 | 110 | 90.9 | 82.8 | 95.8 | viability, T/C [8]: 96.6%; viability, T/C [11]: 96.7%; viability, T/C [12]: 103%; viability, T/C [13]: 101%; viability, T/C [14]: 90.8%; viability, T/C [17]: 99.4%; viability, T/C [18]: 91.2%; viability, T/C [19]: 88.6%; viability, T/C [20]: 104%; viability, T/C [23]: 105%; viability, T/C [24]: 101%; viability, T/C [25]: 88%; viability, T/C [26]: 93.8%; viability, T/C [29]: 91.4%; viability, T/C [30]: 102% |
